The record followed here is US20250019379A1, “NEW CRYSTAL FORM OF COMPOUND, AND PREPARATION METHOD THEREFOR AND USE THEREOF” (E-nitiate Biopharmaceuticals (Hangzhou) Co., Ltd, priority 2021, published 2025).

What all share (format): physicochemical
Data set [1] in a line: Influencing factors test (light, high temperature, high humidity). To be noted: 5000Lx light, 60° C., 90% RH±5% RH; 0, 5, 10, 30 days. On the procedure:
The stability of the crystalline form of the present invention under accelerated test conditions was determined. […] Stability testing was conducted under the following conditions, and samples were taken on the 0th day, the 5th day, the 10th day and the 30th day. The content, total impurities, and XRPD patterns of the samples were recorded and compared with the initial data.

The nature of data set [2]: Thermodynamic analysis experiment (heating, XRPD). As for the experimental part: Crystalline form H and crystalline form S were heated to appropriate temperatures under N2 protection, and after cooling to room temperature, the XRPD of the solids was measured.
The nature of data set [3]: Crystal form stability test. As for the experimental part: The crystalline form M was stored at a temperature of 25° C. and a humidity of 55% RH for 35 days, and the XRPD of the solid was tested.
Data set [4] can be described thus: Solid state stability (HPLC purity, XRPD). As to conditions: for Purity (%): open. As for the experimental part: Purity testing (via HPLC) and crystal form detection (via XRPD) were performed on starting samples, samples stored for one week, and samples stored for two weeks.
A short description of data set [5]: Dynamic solubility in biological solvents at 37° C. As to conditions: 37° C. As for the experimental part:
(1) Preparation method of FaSSIF: a. Weigh 42 mg NaOH, 395 mg NaH2PO4·H2O and 619 mg NaCl in a 100 mL beaker, add 90 mL deionized water to dissolve: b. Adjust the pH to […]; Dilute to 100 mL with deionized water to obtain FaSSIF blank solvent: c. Weigh 224 mg of Simulated Intestinal Fluid (hereinafter referred to as SIF powder), add 50 mL of the above FaSSIF blank solvent, and stir until completely dissolved; use Dilute the FaSSIF blank solvent to 100 mL to prepare the solvent FaSSIF; d. Let it stand at room temperature for 2 hours before use.
(2) Preparation method of FeSSIF: a. Weigh 404 mg NaOH, 865 mg glacial acetic acid and 1189 mg NaCl in a 100 mL beaker, add 90 mL deionized water to dissolve: b. Adjust the pH to 5.0 with 1N NaOH or 1N HCl; Dilute to 100 mL with deionized water to obtain FeSSIF blank solvent; c. Weigh 1120 mg SIF powder and add 50 mL of the above FeSSIF blank solvent, stir until dissolved: dilute to 100 mL with FeSSIF blank solvent to obtain FeSSIF solvent d. Let it stand at room temperature before use to ensure a clear solution.
(3) Preparation method of SGF: a. Weigh 200 mg NaCl in a 100 mL beaker, add 90 mL deionized water to dissolve; b. Adjust the pH to 1.6 with 1N HCl; dilute to 100 mL with deionized water to obtain SGF Blank solvent; c. Weigh 6 mg SIF powder and add 50 mL of the above SGF blank solvent, stir until dissolved: dilute to 100 mL with SGF blank solvent to prepare the solvent SGF: d. Let it stand at room temperature before use to ensure a clear solution.
(100 rpm). Take 1.3 mL of the suspension (or clarified solution) respectively at 1, 4, and 24 hours, and centrifuge the suspension for 5 minutes. The solid obtained is used for crystal form detection (XRPD), and the supernatant/clarified solution is filtered for solubility testing and pH test.
Solubility data of the samples were collected using a high-performance liquid chromatograph equipped with an image diode array detector.

Consider `C[C@@H](O)c1nc2cnc3[nH]ccc3c2n1N1CCC(CC#N)CC1` [Crystalline form H, (R)-2-(1-(2-(1-hydroxyethyl)imidazo[4,5-d]pyrrolo[2,3-b]pyridine-1(6H)-yl)piperidin-4-yl)acetonitrile], for which the “stability under accelerated test conditions (content, total impurities, XRPD)” value in data set [1] is given as “better stability”. In addition, the “crystal form after heating (XRPD)” value in data set [2] (heated to 162° C. under N2, cooled to room temperature) was “partially converted into crystalline form A”; in data set [2] (heated to 210° C. under N2, cooled to room temperature), “completely converted into crystalline form A”.

Turning to `C[C@@H](O)c1nc2cnc3[nH]ccc3c2n1N1CCC(CC#N)CC1` [Crystalline form M, (R)-2-(1-(2-(1-hydroxyethyl)imidazo[4,5-d]pyrrolo[2,3-b]pyridine-1(6H)-yl)piperidin-4-yl)acetonitrile], the “stability under ambient temperature and humidity” value in data set [3] is listed as “unstable”. The “crystal form after storage (XRPD)” value in data set [3] (25° C., 55% RH, 35 days) is given as “transformed into the crystalline form A”.

For the molecule `C[C@@H](O)c1nc2cnc3[nH]ccc3c2n1N1CCC(CC#N)CC1` [Crystalline form Q, (R)-2-(1-(2-(1-hydroxyethyl)imidazo[4,5-d]pyrrolo[2,3-b]pyridine-1(6H)-yl)piperidin-4-yl)acetonitrile], in data set [4], the “solid-state stability (conclusion)” value is reported as “good solid-state stability”. Besides, the “Purity (%)” value is reported as 99.80% in data set [4] (1 week, 25° C./60% RH); 99.93% in data set [4] (1 week, 40° C./75% RH); 99.91% in data set [4] (1 week, 60° C.); 99.87% in data set [4] (2 week, 25° C./60% RH); 99.87% in data set [4] (2 week, 40° C./75% RH); 99.92% in data set [4] (2 week, 60° C.). For the same molecule, the Crystal form changes result in data set [4] (1 week, 25° C./60% RH, 40° C./75% RH, 60° C.) was “no change”; in data set [4] (2 week, 25° C./60% RH, 40° C./75% RH, 60° C.) it was “no change”. Further, the “change in the crystalline form (XRPD)” value in data set [4] (after one week and two weeks of storage under the selected conditions) is recorded as “no change”. Besides, the change in purity result in data set [4] (after one week and two weeks under the selected conditions) is listed as “no significant change”. Moreover, the “Starting sample Purity (%)” value in data set [4] (starting sample) was 99.87%. For the same molecule, in data set [1], the “stability under accelerated test conditions (content, total impurities, XRPD)” value was “better stability”. Also, the “Changes in Crystal form” value is listed as “no change” in data set [5] (FaSSIF, 1 h); “no change” in data set [5] (FaSSIF, 24 h); “no change” in data set [5] (FeSSIF, 24 h); “no change” in data set [5] (SGF, 1 h); “no change” in data set [5] (SGF, 24 h). Also, the pH in data set [5] (FaSSIF, 1 h) is recorded as 6.45; in data set [5] (FaSSIF, 4 h), 6.40; in data set [5] (FaSSIF, 24 h), 6.49; in data set [5] (FeSSIF, 1 h) it was 4.96; in data set [5] (FeSSIF, 4 h), 4.98; in data set [5] (FeSSIF, 24 h), 5.00. The pH in data set [5] (SGF, 1 h) stood at 2.60; in data set [5] (SGF, 4 h), 2.98; in data set [5] (SGF, 24 h), 2.71. Also, the “crystal form stability when suspended and stirred” value in data set [5] (SGF/FeSSIF/FeSSIF, 24 hours) is “stable”.

With `C[C@@H](O)c1nc2cnc3[nH]ccc3c2n1N1CCC(CC#N)CC1` [Crystalline form S, (R)-2-(1-(2-(1-hydroxyethyl)imidazo[4,5-d]pyrrolo[2,3-b]pyridine-1(6H)-yl)piperidin-4-yl)acetonitrile], in data set [2] (heated to 215° C. under N2, cooled to room temperature), the “crystal form after heating (XRPD)” value is “converted into crystalline form A”.
